Measured values from patent publication US4048299A, “Anticaries confectionaries and oral health products” (William Wrigley, Jr. Co., priority 1970, dated 1977).

Columns and labels:
Streptococcus spp. KI-R [1] = assay: Acid production inhibition by aldehydes in product vehicles, broth-tube technique; type: cell-based; conditions: 1 to 5 percent aldehyde
Method: (§1) Other in vitro evaluations utilized a broth tube analysis of representative anticaries aldehydes incorporated in the vehicles of this invention against cultures of acid producing microorganisms normally present in the mouth. Standard laboratory procedures were utilized throughout to evaluate the acid production inhibition and growth inhibition over the incubation time of up to 24 hours.
(§2) (a)Measured by broth-tube technique.
(§3) In formulating Tables XIII - XIX representative aldehydes having anticaries activity were selected from those tested as summarized in Tables I - XII and incorporated in seven representative types of products. The products included dextrose and sucrose syrups, obtained commercially in food grades, and compressed candy, hard candy, mouthwash, toothpaste and toothpowder. The five latter products also employed food grade and reagent grade ingredients. These products were formulated by well-known and representative recipes for each type of product. The products were formed in batches of approximately 1 pound or 1 liter and contained all their normal constitutents. Aliquots of each products were blended with one of each of the representative aldehydes selected except in the case of hard candy.
(§4) Aliquots of the aldehyde incorporating sugar syrups, confectioneries, and mouthwash formulations were added directly to assay flasks and mixed or dissolved as required. Aqueous extracts of the aldehyde incorporated in toothpaste and toothpowder were prepared and aliquots of the filtrate were added to the assay flasks.
(§5) The assay flasks contained the necessary components for a normal growth response from the organisms employed, Lactobacillus casei ATCC 4646, originally a human oral isolate, Streptococcus spp. K1-R, human caries isolate, and a mixed oral microbial population obtained fresh from saliva on the morning prior to the initiation of each assay incubation period. The assay flask medium was dissolved in distilled water in which was added an equal volume of filter sterilized human saliva to yield a 50 percent saliva-medium combination. The medium contained all normal ingredients such as yeast extract, proteose peptone number 3 (a proprietary formula of Difco Laboratories, Detroit, Michigan) monopotassium phosphate, Tween 80 (polyoxethylene sorbitan monoleate) and water, except a carbon source. This was supplied by the aliquot of the sucrose syrup, dextrose syrup, sucrose in the compressed candy tablet and sucrose in the hard candy product. In addition, an aliquot of sucrose solution concentrate was added to the assay flask as a carbon source for evaluation of mouthwash, toothpaste, and toothpowder vehicles.
(§6) The lower aldehydes such as glycolaldehyde, crystalline dimer; pyruvaldehyde, aqueous syrup; d,1-glyceraldehyde solution and crystalline dimer; and glutaraldehyde, employed as a 50 percent aqueous solution, are water soluble and were employed directly either as powders or aqueous solutions. The C8 to C12, longer chain aliphatic aldehydes, of which decyl and dodecyl (lauric) were selected as representative, are oil soluble and are prepared and added to the products as emulsions with four parts of Tween 20, polyoxethylene sorbitan monolaurate. The aldehyde concentrations in the products were randomly chosen between 1 to 5 percent by weight. Limits for the concentrations were selected to coincide with the data presented in Tables I - XII in order to verify that the anticaries activity of the aldehydes in the product vehicles tested was equivalent to the activity previously established for the aldehydes alone.

[2] = tested on: Lactobacillus casei ATCC 4646; assay: as above; type: cell-based; conditions: 1 to 5 percent aldehyde
Method: as §1, §2, §3, §4, §5, §6

[3] = tested on: Mixed human oral microorganisms; assay: as above; type: cell-based; conditions: 1 to 5 percent aldehyde
Method: as §1, §2, §3, §4, §5, §6

[4] = tested on: Lactobacillus casei and Streptococcus sp. FA-1; assay: Acid-production inhibition by broth-tube assay, 0.1 percent of compound; type: cell-based; conditions: Table XII; 0.1% of compound
Method: ^(a) Activity was measured by broth-tube assay to determine percent
(§7) acid-production inhibition obtained by Lactobacillus casei and
Streptococcus sp. FA-1 in the presence of 0.1 percent of compound.
^(a) Activity was measured by broth-tube assay to determine percent o
as §7
Streptococcus sp. FA-1 in the presence of 0.1% of compound. Symbols

Streptococcus spp. KI-R [5] = assay: Growth inhibition by aldehydes in product vehicles, pour-plate technique; type: cell-based; conditions: 1 to 5 percent aldehyde
Method: as §1
(§8) (b)Measured by pour-plate technique.
as §3, §4, §5, §6

[6] = tested on: Lactobacillus casei ATCC 4646; assay: as above; type: cell-based; conditions: 1 to 5 percent aldehyde
Method: as §1, §8, §3, §4, §5, §6

[7] = tested on: Mixed human oral microorganisms; assay: as above; type: cell-based; conditions: 1 to 5 percent aldehyde
Method: as §1, §8, §3, §4, §5, §6

oral microorganisms = assay: Comparison of activity against oral microorganisms in vitro; conditions: in words, summary of tables
Method: Two types of in vitro evaluations of the anticaries agents of this invention were conducted. […] The data was compiled through well-known broth tube analysis techniques.

[8] = in compressed candy tablet, 2 h incubation
[9] = in compressed candy tablet, 5 h incubation
[10] = in compressed candy tablet, 24 h incubation
[11] = in dextrose syrup, 2 h incubation
[12] = in dextrose syrup, 5 h incubation
[13] = in dextrose syrup, 24 h incubation
[14] = in sucrose syrup, 2 h incubation
[15] = in sucrose syrup, 5 h incubation
[16] = in sucrose syrup, 24 h incubation
[17] = in tooth powder (aqueous extract), 2 h incubation
[18] = in tooth powder (aqueous extract), 5 h incubation
[19] = in tooth powder (aqueous extract), 24 h incubation
[20] = in toothpaste (aqueous extract), 2 h incubation
[21] = in toothpaste (aqueous extract), 5 h incubation
[22] = in toothpaste (aqueous extract), 24 h incubation

SMILES: O=CCCCC=O [Glutaraldehyde]
- Acid Production Inhibition (Streptococcus spp. KI-R [1]; [8]): 100 Per Cent
- Acid Production Inhibition (Streptococcus spp. KI-R [1]; [9]): 100 Per Cent
- Acid Production Inhibition (Streptococcus spp. KI-R [1]; [10]): 100 Per Cent
- Acid Production Inhibition (Streptococcus spp. KI-R [1]; [11]): 70 Per Cent
- Acid Production Inhibition (Streptococcus spp. KI-R [1]; [12]): 93 Per Cent
- Acid Production Inhibition (Streptococcus spp. KI-R [1]; [13]): 0 Per Cent
- Acid Production Inhibition (Streptococcus spp. KI-R [1]; in mouthwash, 2 h incubation): 0 Per cent
- Acid Production Inhibition (Streptococcus spp. KI-R [1]; in mouthwash, 5 h incubation): 0 Per cent
- Acid Production Inhibition (Streptococcus spp. KI-R [1]; in mouthwash, 24 h incubation): 99 Per cent
- Acid Production Inhibition (Streptococcus spp. KI-R [1]; [14]): 100 Per cent
- Acid Production Inhibition (Streptococcus spp. KI-R [1]; [15]): 83 Per cent
- Acid Production Inhibition (Streptococcus spp. KI-R [1]; [16]): 0 Per cent
- Acid Production Inhibition (Streptococcus spp. KI-R [1]; [17]): 0 Per cent
- Acid Production Inhibition (Streptococcus spp. KI-R [1]; [18]): 0 Per cent
- Acid Production Inhibition (Streptococcus spp. KI-R [1]; [19]): 0 Per cent
- Acid Production Inhibition (Streptococcus spp. KI-R [1]; [20]): 100 Per cent
- Acid Production Inhibition (Streptococcus spp. KI-R [1]; [21]): 100 Per cent
- Acid Production Inhibition (Streptococcus spp. KI-R [1]; [22]): 84 Per cent
- Acid Production Inhibition [2, 8]: 0 Per Cent
- Acid Production Inhibition [2, 9]: 33 Per Cent
- Acid Production Inhibition [2, 10]: 81 Per Cent
- Acid Production Inhibition [2, 11]: 76 Per Cent
- Acid Production Inhibition [2, 12]: 70 Per Cent
- Acid Production Inhibition [2, 13]: 29 Per Cent
- Acid Production Inhibition [2, 14]: 100 Per cent
- Acid Production Inhibition [2, 15]: 75 Per cent
- Acid Production Inhibition [2, 16]: 50 Per cent
- Acid Production Inhibition [2, 17]: 0 Per cent
- Acid Production Inhibition [2, 18]: 33 Per cent
- Acid Production Inhibition [2, 19]: 21 Per cent
- Acid Production Inhibition [2, 20]: 80 Per cent
- Acid Production Inhibition [2, 21]: 80 Per cent
- Acid Production Inhibition [2, 22]: 50 Per cent
- Acid Production Inhibition [3, 8]: 100 Per Cent
- Acid Production Inhibition [3, 9]: 100 Per Cent
- Acid Production Inhibition [3, 10]: 0 Per Cent
- Acid Production Inhibition [3, 11]: 23 Per Cent
- Acid Production Inhibition [3, 12]: 81 Per Cent
- Acid Production Inhibition [3, 13]: 16 Per Cent
- Acid Production Inhibition ([3]; in mouthwash, 2 h incubation): 0 Per cent
- Acid Production Inhibition ([3]; in mouthwash, 5 h incubation): 100 Per cent
- Acid Production Inhibition ([3]; in mouthwash, 24 h incubation): 91 Per cent
- Acid Production Inhibition [3, 14]: 100 Per cent
- Acid Production Inhibition [3, 15]: 59 Per cent
- Acid Production Inhibition [3, 16]: 0 Per cent
- Acid Production Inhibition [3, 17]: 67 Per cent
- Acid Production Inhibition [3, 18]: 95 Per cent
- Acid Production Inhibition [3, 19]: 45 Per cent
- Acid Production Inhibition [3, 20]: 0 Per cent
- Acid Production Inhibition [3, 21]: 0 Per cent
- Acid Production Inhibition [3, 22]: 0 Per cent
- Activity, Acid-Production Inhibition, % [4]: ++++ (99 to 100)
- Solubility: water soluble
- Growth Inhibition (Streptococcus spp. KI-R [5]; [8]): N.S.
- Growth Inhibition (Streptococcus spp. KI-R [5]; [9]): N.S.
- Growth Inhibition (Streptococcus spp. KI-R [5]; [10]): N.S.
- Growth Inhibition (Streptococcus spp. KI-R [5]; [11]): N.S.
- Growth Inhibition (Streptococcus spp. KI-R [5]; [12]): 99.96 Per Cent
- Growth Inhibition (Streptococcus spp. KI-R [5]; [13]): 0 Per Cent
- Growth Inhibition (Streptococcus spp. KI-R [5]; in mouthwash, 2 h incubation): 100 Per cent
- Growth Inhibition (Streptococcus spp. KI-R [5]; in mouthwash, 5 h incubation): 99.999 Per cent
- Growth Inhibition (Streptococcus spp. KI-R [5]; in mouthwash, 24 h incubation): 100 Per cent
- Growth Inhibition (Streptococcus spp. KI-R [5]; [14]): N.S.
- Growth Inhibition (Streptococcus spp. KI-R [5]; [15]): > 99 Per cent
- Growth Inhibition (Streptococcus spp. KI-R [5]; [16]): 90 Per cent
- Growth Inhibition (Streptococcus spp. KI-R [5]; [17]): N.S.
- Growth Inhibition (Streptococcus spp. KI-R [5]; [18]): N.S.
- Growth Inhibition (Streptococcus spp. KI-R [5]; [19]): N.S.
- Growth Inhibition (Streptococcus spp. KI-R [5]; [20]): N.S.
- Growth Inhibition (Streptococcus spp. KI-R [5]; [21]): N.S.
- Growth Inhibition (Streptococcus spp. KI-R [5]; [22]): N.S.
- Growth Inhibition [6, 8]: N.S.
- Growth Inhibition [6, 9]: N.S.
- Growth Inhibition [6, 10]: 99.5 Per Cent
- Growth Inhibition [6, 11]: N.S.
- Growth Inhibition [6, 12]: N.S.
- Growth Inhibition [6, 13]: 90 Per Cent
- Growth Inhibition [6, 14]: N.S.
- Growth Inhibition [6, 15]: N.S.
- Growth Inhibition [6, 16]: N.S.
- Growth Inhibition [6, 17]: N.S.
- Growth Inhibition [6, 18]: N.S.
- Growth Inhibition [6, 19]: N.S.
- Growth Inhibition [6, 20]: N.S.
- Growth Inhibition [6, 21]: N.S.
- Growth Inhibition [6, 22]: 0 Per cent
- Growth Inhibition [7, 8]: 97.3 Per Cent
- Growth Inhibition [7, 9]: 99.8 Per Cent
- Growth Inhibition [7, 10]: N.S.
- Growth Inhibition [7, 11]: 92.5 Per Cent
- Growth Inhibition [7, 12]: 90 Per Cent
- Growth Inhibition [7, 13]: N.S.
- Growth Inhibition ([7]; in mouthwash, 2 h incubation): 100 Per cent
- Growth Inhibition ([7]; in mouthwash, 5 h incubation): 100 Per cent
- Growth Inhibition ([7]; in mouthwash, 24 h incubation): 99.9 Per cent
- Growth Inhibition [7, 14]: 90 Per cent
- Growth Inhibition [7, 15]: 93 Per cent
- Growth Inhibition [7, 16]: N.S.
- Growth Inhibition [7, 17]: N.S.
- Growth Inhibition [7, 18]: 96.6 Per cent
- Growth Inhibition [7, 19]: N.S.
- Growth Inhibition [7, 20]: 0 Per cent
- Growth Inhibition [7, 21]: N.S.
- Growth Inhibition [7, 22]: N.S.

SMILES: CC(O)C=O (stereo not drawn) [α-Hydroxypropionaldehyde]
- Anticaries activity in vitro (oral microorganisms): excellent anticaries activity
